The structures appear in SMILES notation.

T1 sequence (Q07817 whole entry): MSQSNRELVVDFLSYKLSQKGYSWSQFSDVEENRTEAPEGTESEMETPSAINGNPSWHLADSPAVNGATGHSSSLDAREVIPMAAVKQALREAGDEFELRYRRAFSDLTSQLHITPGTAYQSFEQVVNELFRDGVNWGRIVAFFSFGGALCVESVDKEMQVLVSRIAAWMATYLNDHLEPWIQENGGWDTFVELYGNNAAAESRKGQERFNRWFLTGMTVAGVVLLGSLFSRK

This assay addresses T1, endogenous BCL-xL (Homo sapiens, UniProt Q07817).
T1 construct: endogenous in cells; host or cells: COR-L105 (ECACC No. 92031918); NCI-H1650 (ATCC No. CRL-5883)
Put plainly: Degradation of endogenous BCL-xL in COR-L105 (ProteinSimple Jess). It counts as cell-based. The note with it: COR-L105, 24 h, COR-L105, dose 300 nM, read-out: % BCL-xL vs. Untreated, COR-L105. The method, boiled down:
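COR-L105 cells (2,000,000/well) treated 24 h at 37 °C with compound at 100–300 nM final, singlet, alongside untreated cells. RIPA lysates normalized by BCA to 1.5 mg/mL, then BCL-xL detected by capillary immunoassay (2–40 kDa Jess) comparing treated with untreated lysates.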
With `Cc1ncsc1-c1ccc(CNC(=O)[C@@H]2CC(O)CN2C(=O)C(NC(=O)CCCCCCC(=O)N2CCN(CCOC34CC5(C)CC(C)(CC(Cn6ncc(-c7ccc(N8CCCc9c8nnc(Nc8nc%10ccccc%10s8)c9C)nc7C(=O)O)c6C)(C5)C3)C4)CC2)C(C)(C)C)cc1` (stereo in doubt) [Example 24, 6-[3-(1,3-benzothiazol-2-ylamino)-4-methyl-6,7-dihydro-5H-pyrido[2,3-c]pyridazin-8-yl]-3-[1-[[3-[2-[4-[8-[[(1S)-1-[(2S,4R)-4-hydroxy-2-[[4-(4-methylthiazol-5-yl)phenyl]methylcarbamoyl]pyrrolidine-1-carbonyl]-2,2-dimethyl-propyl]amino]-8-oxo-octanoyl]piperazin-1-yl]ethoxy]-5,7-dimethyl-1-adamantyl]methyl]-5-methyl-pyrazol-4-yl]pyridine-2-carboxylic acid], the remaining activity at 0.3 µM was determined as 40%. The result for `Cc1ncsc1-c1ccc([C@H](C)NC(=O)[C@@H]2C[C@@H](O)CN2C(=O)[C@@H](NC(=O)CC23CC4CC(C2)CC(CC(=O)N2CCN(CC#Cc5ccc(OCCCc6sc(N7CCCc8c7nnc(Nc7nc9ccccc9s7)c8C)nc6C(=O)O)c(F)c5)CC2)(C4)C3)C(C)(C)C)cc1` [Example 42, 2-(3-(benzo[d]thiazol-2-ylamino)-4-methyl-6,7-dihydropyrido [2,3-c]pyridazin-8(5H)-yl)-5-(3-(2-fluoro-4-(3-(4-(2-((3S,5R)-3-(2-(((S)-1-((2S,4R)-4-hydroxy-2-(((S)-1-(4-(4-methylthiazol-5-yl)phenyl)ethyl)carbamoyl)pyrrolidin-1-yl)-3,3-dimethyl-1-oxobutan-2-yl)amino)-2-oxoethyl)adamantan-1-yl)acetyl)piperazin-1-yl)prop-1-yn-1-yl)phenoxy)propyl)thiazole-4-carboxylic acid] reads 33.3%; that for `Cc1ncsc1-c1ccc([C@H](C)NC(=O)[C@@H]2C[C@@H](O)CN2C(=O)[C@@H](NC(=O)CCCC(=O)N2CCN(CC#Cc3ccc(OCCCc4sc(N5CCCc6c5nnc(Nc5nc7ccccc7s5)c6C)nc4C(=O)O)c(F)c3)CC2)C(C)(C)C)cc1` [Example 35, 2-(3-(benzo[d]thiazol-2-ylamino)-4-methyl-6,7-dihydropyrido [2,3-c]pyridazin-8(5H)-yl)-5-(3-(2-fluoro-4-(3-(4-(5-(((S)-1-((2S,4R)-4-hydroxy-2-(((S)-1-(4-(4-methylthiazol-5-yl)phenyl)ethyl)carbamoyl)pyrrolidin-1-yl)-3,3-dimethyl-1-oxobutan-2-yl)amino)-5-oxopentanoyl)piperazin-1-yl)prop-1-yn-1-yl)phenoxy)propyl)thiazole-4-carboxylic acid], above 90%. The result for `Cc1ncsc1-c1ccc(CNC(=O)[C@@H]2C[C@@H](O)CN2C(=O)[C@@H](NC(=O)CCCCCCC(=O)N2CCN(CC#Cc3ccc(OCCCc4sc(N5CCCc6c5nnc(Nc5nc7ccccc7s5)c6C)nc4C(=O)O)c(F)c3)CC2)C(C)(C)C)cc1` [Example 33, 2-(3-(benzo[d]thiazol-2-ylamino)-4-methyl-6,7-dihydropyrido [2,3-c]pyridazin-8(5H)-yl)-5-(3-(2-fluoro-4-(3-(4-(8-(((S)-1-((2S,4R)-4-hydroxy-2-((4-(4-methylthiazol-5-yl)benzyl)carbamoyl)pyrrolidin-1-yl)-3,3-dimethyl-1-oxobutan-2-yl)amino)-8-oxooctanoyl)piperazin-1-yl)prop-1-yn-1-yl)phenoxy)propyl) thiazole-4-carboxylic acid] reads 64.8%; that for `Cc1ncsc1-c1ccc([C@H](C)NC(=O)[C@@H]2C[C@@H](O)CN2C(=O)[C@@H](NC(=O)CCCCCCCCCCC(=O)N2CCN(CC#Cc3ccc(OCCCc4sc(N5CCCc6c5nnc(Nc5nc7ccccc7s5)c6C)nc4C(=O)O)c(F)c3)CC2)C(C)(C)C)cc1` [Example 46, 2-(3-(benzo[d]thiazol-2-ylamino)-4-methyl-6,7-dihydropyrido [2,3-c]pyridazin-8(5H)-yl)-5-(3-(2-fluoro-4-(3-(4-(12-(((S)-1-((2S,4R)-4-hydroxy-2-(((S)-1-(4-(4-methylthiazol-5-yl)phenyl)ethyl)carbamoyl)pyrrolidin-1-yl)-3,3-dimethyl-1-oxobutan-2-yl)amino)-12-oxododecanoyl)piperazin-1-yl)prop-1-yn-1-yl)phenoxy)propyl)thiazole-4-carboxylic acid], 22.6%. For the compound `Cc1ncsc1-c1ccc([C@H](C)NC(=O)[C@@H]2C[C@@H](O)CN2C(=O)[C@@H](NC(=O)CCCCCCCCCCC(=O)N2CCN(CCOC34CC5(C)CC(C)(CC(Cn6ncc(-c7ccc(N8CCCc9c8nnc(Nc8nc%10ccccc%10s8)c9C)nc7C(=O)O)c6C)(C5)C3)C4)CC2)C(C)(C)C)cc1` [Example 47, 6-(3-(benzo[d]thiazol-2-ylamino)-4-methyl-6,7-dihydropyrido [2,3-c]pyridazin-8(5H)-yl)-3-(1-(((1r,3s,5R,7S)-3-(2-(4-(12-(((S)-1-((2S,4R)-4-hydroxy-2-(((S)-1-(4-(4-methylthiazol-5-yl)phenyl)ethyl)carbamoyl)pyrrolidin-1-yl)-3,3-dimethyl-1-oxobutan-2-yl)amino)-12-oxododecanoyl)piperazin-1-yl)ethoxy)-5,7-dimethyladamantan-1-yl)methyl)-5-methyl-1H-pyrazol-4-yl)picolinic acid], the remaining activity at 0.3 µM was found to be 22.3%. `Cc1ncsc1-c1ccc([C@H](C)NC(=O)[C@@H]2C[C@@H](O)CN2C(=O)[C@@H](NC(=O)CCCCCCCCCCCN2CCN(CC#Cc3ccc(OCCCc4sc(N5CCCc6c5nnc(Nc5nc7ccccc7s5)c6C)nc4C(=O)O)c(F)c3)CC2)C(C)(C)C)cc1` [Example 51, 2-(3-(benzo[d]thiazol-2-ylamino)-4-methyl-6,7-dihydropyrido [2,3-c]pyridazin-8(5H)-yl)-5-(3-(2-fluoro-4-(3-(4-(12-(((S)-1-((2S,4R)-4-hydroxy-2-(((S)-1-(4-(4-methylthiazol-5-yl)phenyl)ethyl)carbamoyl)pyrrolidin-1-yl)-3,3-dimethyl-1-oxobutan-2-yl)amino)-12-oxododecyl)piperazin-1-yl)prop-1-yn-1-yl)phenoxy)propyl)thiazole-4-carboxylic acid]: the remaining activity at 0.3 µM was 12.1%.

Values taken from patent US20240376094A2, “SELECTIVE BCL-XL PROTAC COMPOUNDS AND METHODS OF USE” (Les Laboratoires Servier, priority 2021, published 2024).
